Results: patent publication US9889088B2, “Alpha-2 adrenergic agonist having long duration of intraocular pressure-lowering effect” (priority 2010, dated 2018)
Blank lines part the entries; values can stand above or below the compound they belong to.

Legend:
[1] = Iris-ciliary body accumulation and melanin binding (pharmacokinetic data); conditions: unpublished pharmacokinetic data
[2] = system: intraocular pressure of hypertensive monkeys; experiment: Intraocular pressure lowering in hypertensive monkeys; type: in vivo, monkey; conditions: composition of Example 1 (FIG. 4 legend: 0.5% solution), compared to placebo
[3] = system: intraocular pressure of normotensive Dutch-Belted male rabbits; experiment: Intraocular pressure lowering after a single topical eye drop in normotensive rabbits; type: in vivo, rabbit; conditions: for time for which the decrease in intraocular pressure is maintained: single 50 μl drop, treated eye; for sedation, ocular irritation, and changes in pupil diameter: single topical drop, observed throughout the experiment
Protocol: The free base of 4-bromo-N-imidazolidin-2-ylidene-1-H-benzimidazol-5-amine was dissolved in sterile distilled water, hydrochloric acid was added and the hydrochloric salt of the compound was formed in situ. The solution was titrated with sodium hydroxide until the pH of the solution reached 8.0. […] The experimental animals used were normotensive Dutch-Belted male rabbits. A single drop (50 μl) of the drug formulation was administered topically by pipette onto the right eye (treated eye) at approximately 07:00 AM hours. The intraocular pressure of the rabbits (treated and untreated eyes) was measured 0 hours before and at 0.5, 1, 2, 3, 4, 6 and 8 hours after topical eye drop single administration. The intraocular pressure taken before the eye drop administration (0 hours) was used as a baseline value. Prior to the tonometric measurements, 0.05% proparacaine (50 μl) was administered to each eye. Tonometric intraocular pressure measurements were obtained with a Mentor Pneumotonometer. Additionally, all studies were masked. All animals were examined for sedation, ocular irritation, and changes in pupil diameter throughout the course of the experiments.
The free base of 4-bromo-N-imidazolidin-2-ylidene-1-H-benzimidazol-5-amine was dissolved in sterile distilled water, hydrochloric acid was added and the hydrochloric salt of the compound was formed in situ. The solution was titrated with sodium hydroxide until the pH of the solution reached 8.0. The final concentration of 4-bromo-N-imidazolidin-2-ylidene-1-H-benzimidazol-5-amine is 0.2% by weight. The experimental animals used were normotensive Dutch-Belted male rabbits. A single drop (50 μl) of the drug formulation was administered topically by pipette onto the right eye (treated eye) at approximately 07:00 AM hours. The intraocular pressure of the rabbits (treated and untreated eyes) was measured 0 hours before and at 2, 4 and 6 hours after topical eye drop single administration. The intraocular pressure taken before the eye drop administration (0 hours) was used as a baseline value. Prior to the tonometric measurements, 0.05% proparacaine (50 μl) was administered to each eye. Tonometric intraocular pressure measurements were obtained with a Mentor Pneumotonmeter. Additionally, all studies were masked. All animals were examined for sedation, ocular irritation, and changes in pupil diameter throughout the course of the experiments.

corneal epithelial cells = experiment: Corneal penetration assay
[4] = Corneal penetration assay
[5] = Pharmacokinetic analysis of ocular tissues and plasma after topical dosing in rabbits; type: in vivo, rabbit
Protocol: Twenty-three Dutch Belted female rabbits (group 1) weighing approximately 1.75-2.34 kg were dosed with 35 μL of the formulation to the left eye. At different time points, prior to euthanasia, approximately 0.5 mL of blood was collected via central ear artery and placed in EDTA tubes. Blood samples were kept on ice during the duration of sample collection and centrifuged to harvest plasma. Animals were euthanized with 1 mL of Euthasol intravenously and the ocular tissues (aqueous humor, cornea, conjunctiva, iris-ciliary body, retina, and sclera) were collected from left and right eyes. All ocular tissues samples were placed in vials and kept on dry ice during the duration of sample collection. Ocular tissues were also collected from the control group (group 2) which received no dose. These ocular tissues served as analytical control. All ocular tissue and plasma samples were stored at or below −60° C. until bioanalysis.
(Acheampong et al. (Drug Metabolism and Disposition, Vol 23, No. 7, p 708-712).

[6] = rats, after oral dose of brimonidine tartrate; Acheampong et al. 2007; cited from earlier work
[7] = stated as found earlier; cited from earlier work
[8] = cited from earlier work; for clearance from the aqueous humor / passage through cornea and sclera: following topical dosing

Structure (SMILES): Brc1c(N=C2NCCN2)ccc2[nH]cnc12 [4-bromo-N-imidazolidin-2-ylidene-1-H-benzimidazol-5-amine]
accumulation at the iris-ciliary body [1]: very little accumulation
melanin binding [1]: no sign of melanin binding
time for which the decrease in intraocular pressure is maintained [2]: up to 24 hours
time for which the decrease in intraocular pressure is maintained ([3]; 0.2% by weight solution, topical, FIG. 2): > 6 h
sedation, ocular irritation, and changes in pupil diameter ([3]; 0.2% by weight solution): None of these effects were observed
time for which the decrease in intraocular pressure is maintained ([3]; 1% by weight solution, topical, FIG. 1): > 8 h
sedation, ocular irritation, and changes in pupil diameter ([3]; 1% by weight solution): None of these effects were observed
penetration of corneal epithelial cells (in words) (corneal epithelial cells): poorly
Papp [4]: 0.119 ± 0.01 ×10⁻⁶ cm/s
time for which sustained levels remain in the aqueous humor ([5]; 35 μL topical to left eye, Dutch Belted female rabbits, FIG. 3A): over 8 hours
time for which the level is maintained in several ocular tissues ([5]; 35 μL topical to left eye, FIG. 3B): over 8 hrs
plasma level ([5]; after topical ocular dosing): low and below detectable level
amount found in urine [6]: trace amounts

penetration of corneal epithelial cells (in words) (corneal epithelial cells): moderate penetrator
Papp [4]: 8.57 ± 0.64 ×10⁻⁶ cm/s
time in which levels in the aqueous humor are substantially decreased ([5]; 0.15% brimonidine, similar study done previously, FIG. 3A): 3 h
Structure (SMILES): Brc1c(NC2=NCCN2)ccc2nccnc12 [Brimonidine, (5-bromo-quinoxalin-6-yl)-imidazolidin-2-ylidene-amine]
accumulation in the iris-ciliary body [7]: accumulate in the iris-ciliary body
binding to the pigment melanin [7]: high binding
time in which intraocular pressure returns to baseline ([3]; brimonidine containing composition (0.15% solution per FIG. 1 legend), topical): < 6 h
clearance from the aqueous humor [8]: rapidly cleared
passage through cornea and sclera [8]: readily pass through the cornea and sclera
time in which the level decreases in aqueous humor ([8]; regardless of the dose, Acheampong et al.): three

Structure (SMILES): OC[C@@H](O)[C@@H](O)[C@H](O)[C@H](O)CO [Compound 3H-mannitol, 3H-mannitol]
Papp (×10^−6 cm/s) (corneal epithelial cells; permeability coefficient, corneal epithelial cells): 0.512 ± 0.069 ×10^−6 cm/s

Structure (SMILES): Nc1cc(Cl)c(N=C2NCCN2)c(Cl)c1 [apraclonidine, 2,6-dichloro-N-imidazolidin-2-ylidene-benzene-1,4-diamine]
accumulation in the iris-ciliary body [7]: accumulate in the iris-ciliary body
binding to the pigment melanin [7]: high binding
clearance from the aqueous humor [8]: rapidly cleared
passage through cornea and sclera [8]: readily pass through the cornea and sclera
